Test results as given in patent US12433954B2, “Methods of activating anti-CD19 chimeric antigen receptor (CAR) T cells using amphiphilic ligand conjugates comprising CAR-targeting protein sequence motifs” (Massachusetts Institute of Technology, priority 2020, dated 2025).
Ends that are not written are not given here.

What was measured:
FMC63 IgG = assay: Yeast clone staining with biotinylated FMC63 IgG, Kd from MFI (FACS); type: binding, mouse; conditions: yeast clones, 0.01-1000 nM biotinylated FMC63 IgG
Excerpt: In order to validate specific sequences, clones were isolated and measured for their affinity to FMC63. Specifically, a subset of mimotope clones were selected from the fixed library sequence described in Example 5.

FMC63 scFv = assay: Yeast clone staining with biotinylated FMC63 scFv, Kd by FACS; type: binding, mouse; conditions: yeast clones, biotinylated FMC63 scFv monomer
Experimental: FIGS. 10A & 10B provide graphs showing binding of yeast clones expressing the indicated mimotopes to biotinylated FMC63 IgG (FIG. 10A) or biotinylated FMC63 scFv (FIG. 10B) at increasing concentration (0.01-1000 nM).
Identifying specific mimotope clones of varying affinities will provide flexibility in treatments. In order to validate specific sequences, clones were isolated and measured for their affinity to FMC63. Specifically, a subset of mimotope clones were selected from the fixed library sequence described in Example 5. […] Given the FDA-approved CAR is an scFV derived from the parental IgG, mimotope binding to FMC63-scFv monomer was tested using biotinylated FMC63 scFV to measure Kd by FACS (FIG. 10B). […] This screen positively identified mimotope clones with varying affinities to FMC63 which may be used for a tailored vaccine approach.

FMC63 CAR T cells = assay: Long-term in vivo boosting, CAR T expansion in peripheral blood; conditions: day 13; vaccinations day 2 and day 9 with 25 μg cyclic-di-GMP; lymphodepleted mice; vs control mice
Excerpt: FIG. 19A depicts a timeline for administration of CD45.1+ donor FMC63 CAR T cells to CD45.2+ recipient mice on Day 1 following lymphodepletion on day 0. The mice were further administered a first dose of amph-mimotope or bivalent amph-mimotope on Day 2 and a second dose on Day 9. Peripheral blood was obtained from the mice on Day 13 and expansion of CD45.1+ CAR T cells were quantified by flow cytometry. FIG. 19B provides plots measuring the percentage of total T cells expressing CD45.1 and FMC63 CAR in peripheral blood isolated on day 13 from mice treated according to FIG. 19A. […] Control mice received no vaccination. […] Briefly, CD45.2^+ recipient mice received lymphodepeletion preconditioning (sublethal irradiation, 500cGy) on day 0. The mice were then administered 1×10^6 CD45.1^+ donor FMC63 CAR T cells on day 1, followed by two vaccinations on day 2 and day 9 using the following formulation: • (i) 10 ug of monovalent amph-mimotope (Amph-K-C2)+25 μg of cyclic-di-GMP in 1×PBS; or • (ii) 20 ug of amph-Bi-F12-mimotope (PEG4 or PEG8)+25 μg of cyclic-di-GMP in 1×PBS. Control mice received no vaccination. On day 13, peripheral blood was collected for analysis of CAR T expansion in response to amph-mimotope vaccine boosting by flow cytometry. CAR T cells were defined as CD45.1^+CAR^+ cells and were quantified as proportion of total CD8+ T cells.

Chain of FMC63 scFv (as listed by the source): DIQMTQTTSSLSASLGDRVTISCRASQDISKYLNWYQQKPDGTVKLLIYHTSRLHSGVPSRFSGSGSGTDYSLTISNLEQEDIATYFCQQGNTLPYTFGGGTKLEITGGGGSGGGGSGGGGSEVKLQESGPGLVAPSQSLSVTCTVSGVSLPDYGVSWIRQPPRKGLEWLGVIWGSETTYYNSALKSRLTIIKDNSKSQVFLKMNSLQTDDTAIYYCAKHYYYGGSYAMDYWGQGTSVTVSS
Chain of FMC63 IgG (as listed by the source): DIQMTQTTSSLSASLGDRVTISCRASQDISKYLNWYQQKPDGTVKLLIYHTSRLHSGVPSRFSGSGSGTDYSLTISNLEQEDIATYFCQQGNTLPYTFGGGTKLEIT
Chain of FMC63 IgG (as listed by the source): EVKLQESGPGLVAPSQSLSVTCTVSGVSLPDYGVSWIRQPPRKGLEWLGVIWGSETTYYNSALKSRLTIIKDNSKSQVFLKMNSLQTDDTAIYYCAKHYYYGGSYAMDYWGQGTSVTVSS

Substance	Kd (FMC63 IgG) [µM]	Kd (FMC63 scFv) [µM]	expansion of CAR T cells (CD45.1+CAR+ of total CD8+ T cells) in peripheral blood (FMC63 CAR T cells)
D12 (RICPWSCRAP; Synthetic FMC63 Mimotope (D12)) [Clone D12]	> 1	> 1	
amph-bi-F12-peg8 (GGGSASRICPWNCKEL; not fully specified (C-terminus); cysteine pairing not given here; also: bivalent amphiphile conjugate via C-terminal PEG8 linker)			highest level of proliferation
